Results on ten molecules are retold here after ChEMBL document CHEMBL6092130, “Recent advances in the treatment of gout with NLRP3 inflammasome inhibitors” (Bioorg Med Chem, 2024).

Each structure is given as a SMILES string.

The nature of data set [1]: Inhibition of NLRP3 inflammasome activation in LPS-induced mouse RAW264.7 cells assessed as downregulation of NLRP3 expression. The class given is cell-based.
Data set [2] can be described thus: Antiinflammatory activity against LPS-stimulated human MDM cells assessed as inhibition of LPS-induced IL-1beta level at 20 uM incubated for 24 hrs by ELISA relative to control. The class given is functional. Also on record: scale not given: the % may be the effect or the level left. (In general: An ELISA detects its analyte on a solid surface through an enzyme-linked reagent.)

The nature of data set [3]: Inhibition of NLRP3 inflammasome in mouse J774.A1 cells assessed as inhibition of IL-1 beta secretion. The class given is cell-based.
Data set [4] in a line: Oral bioavailability in human. It is filed as ADME, organism-based. The following applies: in vivo.
A short description of data set [5]: Inhibition of NLRP3 inflammasome activation in LPS-induced mouse RAW264.7 cells assessed as reduction of NLRP3 expression by Western blot analysis. The class given is cell-based. (Immunoblotting shows a protein as a band on a membrane.)
The test system of data set [6] is RAW264.7. Put plainly: Antiinflammatory activity against mouse RAW264.7 cells assessed as decrease in LPS-induced IL-1beta level at 20 uM incubated for 24 hrs by ELISA relative to control. It is filed as functional. Also on record: scale not given: the % may be the effect or the level left.
Data set [7] is described as follows: Cytotoxicity against human PBMC cells assessed as reduction in cell viability by CellTiter Glo assay. The class given is functional, cell-based.

The term IC50 denotes the midpoint of a concentration-inhibition curve. For orientation: bioavailability means the share of a dose that reaches the circulation, judged against a reference dose that is usually intravenous.

In the case of `CC(C)(O)c1coc(S(=O)(=O)NC(=O)Nc2c3c(cc4c2CCC4)CCC3)c1`, the IC50 in data set [1] is 0.0075 µM.
For `CS(=O)(=O)CCC#N`, the Activity in data set [2] was found to be 60%.
For the molecule `CCCCN(CCCC)S(=O)(=O)c1ccc(CCNC(=O)c2cc(Cl)ccc2OC)cc1`, the IC50 in data set [1] came out at 0.55 µM.
Same read-out and setting: the figure for `COc1ccc(CNS(=O)(=O)c2ccc(CCNC(=O)c3cc(Cl)ccc3OC)cc2)cc1` is 0.45 µM.
On the same count and under the same terms, the result for `CNS(=O)(=O)c1ccc(CCNC(=O)c2ccccc2)cc1` reads 0.147 µM.
With `COc1ccc(Cl)cc1C(=O)NCCc1ccc(S(=O)(=O)NO)cc1`, in data set [3], the IC50 was 8.45 µM.
`CC(C)C[C@H](NC(=O)[C@H](Cc1ccccc1)NC(=O)c1c(F)cccc1F)B(O)O` had a bioavailability in data set [4] of 48.1%.
`COc1ccc(Cl)cc1C(=O)NCCc1ccc(S(=O)(=O)NC(=O)NC2CCCCC2)cc1` [GLYBURIDE]: the IC50 in data set [5] came to 13 µM.
For `CC(C)C[C@H](NC(=O)CNC(=O)c1cc(Cl)ccc1Cl)B(O)O` [IXAZOMIB], in data set [6], the Activity was 77%.
For the molecule `C=C1C(=O)[C@]23[C@H](O)[C@H]1CC[C@H]2[C@@]12CO[C@]3(O)[C@@H](O)[C@@H]1C(C)(C)CC[C@@H]2O` [ORIDONIN], the IC50 in data set [7] was determined as 5.18 µM.
